Measurements reported in PubChem BioAssay AID1919013 (Molecular Pharmacology Branch, DTP, NCI, 2023).
Several values for one entry are separate records, joined by “and”; a condition that tells them apart may be missing. Equal values may be shown once.

Tested on: LG0703-F498-PDC complex spheroid growth
Assay: Anticancer human tumor LG0703-F498-PDC patient-derived lung adenocarcinoma cell line growth inhibition [AhR]
Details: for viability, T/C: stronger effect = lower value; active = viability on the fitted dose curve at most 10% of control; inactive = the rest
Procedure, shortened: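 Spheroids combined tumor cells with HUVEC endothelial cells and human MSCs as stroma. AhR antagonists were paired with standard or investigational drugs, each dosed in half-log steps down from near clinical Cmax, or from 10 microM where Cmax was unknown.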

[1] = curve of first compound, second compound 0.1 µM
[2] = curve of first compound, second compound 0.316 µM
[3] = curve of first compound, second compound 1 µM
[4] = curve of first compound, second compound 3.16 µM
[5] = curve of first compound, second compound 10 µM
[6] = second compound 0.1 µM, first compound 0.0316 µM
[7] = second compound 0.1 µM, first compound 0.1 µM
[8] = second compound 0.1 µM, first compound 0.316 µM
[9] = second compound 0.1 µM, first compound 1 µM
[10] = second compound 0.1 µM, first compound 3.16 µM
[11] = second compound 0.1 µM, first compound 10 µM
[12] = second compound 0.316 µM, first compound 0.0316 µM
[13] = second compound 0.316 µM, first compound 0.1 µM
[14] = second compound 0.316 µM, first compound 0.316 µM
[15] = second compound 0.316 µM, first compound 1 µM
[16] = second compound 0.316 µM, first compound 3.16 µM
[17] = second compound 0.316 µM, first compound 10 µM
[18] = second compound 1 µM, first compound 0.0316 µM
[19] = second compound 1 µM, first compound 0.1 µM
[20] = second compound 1 µM, first compound 0.316 µM
[21] = second compound 1 µM, first compound 1 µM
[22] = second compound 1 µM, first compound 3.16 µM
[23] = second compound 1 µM, first compound 10 µM
[24] = second compound 3.16 µM, first compound 0.0316 µM
[25] = second compound 3.16 µM, first compound 0.1 µM
[26] = second compound 3.16 µM, first compound 0.316 µM
[27] = second compound 3.16 µM, first compound 1 µM
[28] = second compound 3.16 µM, first compound 3.16 µM
[29] = second compound 3.16 µM, first compound 10 µM
[30] = second compound 10 µM, first compound 0.0316 µM
[31] = second compound 10 µM, first compound 0.1 µM
[32] = second compound 10 µM, first compound 0.316 µM
[33] = second compound 10 µM, first compound 1 µM
[34] = second compound 10 µM, first compound 3.16 µM
[35] = second compound 10 µM, first compound 10 µM
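Note: luminescence taken as a proxy for viable cell amount.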
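Throughout, for viability, T/C: percent of DMSO vehicle control where 100% means growth equal to vehicle.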

CC(C)c1c(-c2ccccc2)nc2c(C#N)c[nH]n2c1=O + Cc1cncc(-c2nc(NCCc3c[nH]c4ccccc34)c3ncn(C(C)C)c3n2)c1
< 0.0316 µM: IC50 [4] | IC50 [5]
> 10 µM: IC50 [1] | IC50 [2] | IC50 [3]
active: viability, T/C [30] 1.38% | viability, T/C [31] 1.01% | viability, T/C [32] 1.64% | viability, T/C [33] 2.22% | viability, T/C [34] 0.57% | viability, T/C [35] 1.89%
inactive: viability, T/C [6] 108% | viability, T/C [7] 101% | viability, T/C [8] 87.2% | viability, T/C [9] 101% | viability, T/C [10] 89.1% | viability, T/C [11] 81.6% | viability, T/C [12] 97.3% | viability, T/C [13] 93.4% | viability, T/C [14] 96.5% | viability, T/C [15] 95.8% | viability, T/C [16] 103% | viability, T/C [17] 79.5% | viability, T/C [18] 106% | viability, T/C [19] 119% | viability, T/C [20] 101% | viability, T/C [21] 91.6% | viability, T/C [22] 91.9% | viability, T/C [23] 89.6% | viability, T/C [24] 39.1% | viability, T/C [25] 40% | viability, T/C [26] 36.9% | viability, T/C [27] 31.7% | viability, T/C [28] 29.9% | viability, T/C [29] 33%

COc1cc(C2c3cc4c(cc3C(OC3OC5COC(C)OC5C(O)C3O)C3COC(=O)C23)OCO4)cc(OC)c1O (configuration not stated) + Cc1cncc(-c2nc(NCCc3c[nH]c4ccccc34)c3ncn(C(C)C)c3n2)c1
< 0.0316 µM: IC50 [5]
inactive: viability, T/C [6] 105% | viability, T/C [7] 96.7% | viability, T/C [8] 102% | viability, T/C [9] 93.8% | viability, T/C [10] 84.6% | viability, T/C [11] 63.4% | viability, T/C [12] 112% | viability, T/C [13] 110% | viability, T/C [14] 96.8% | viability, T/C [15] 85.4% | viability, T/C [16] 77.9% | viability, T/C [17] 71.5% | viability, T/C [18] 89.7% | viability, T/C [19] 126% | viability, T/C [20] 115% | viability, T/C [21] 93.3% | viability, T/C [22] 72.2% | viability, T/C [23] 64.5% | viability, T/C [24] 60.3% | viability, T/C [25] 64.1% | viability, T/C [26] 62.8% | viability, T/C [27] 54.3% | viability, T/C [28] 51.6% | viability, T/C [29] 47.9%
active: viability, T/C [30] 1.19% | viability, T/C [31] 1.35% | viability, T/C [32] 1.7% | viability, T/C [33] 1.47% | viability, T/C [34] 1.3% | viability, T/C [35] 2.49%
5.51 µM: IC50 [4]
> 10 µM: IC50 [1] | IC50 [2] | IC50 [3]

CC1COCCN1c1cc(C2(S(C)(=N)=O)CC2)nc(-c2ccnc3[nH]ccc23)n1 (configuration not stated)
inactive: viability, T/C (compound 0.0316 µM) 91% and 100% and 107% | viability, T/C (compound 0.1 µM) 108% and 96.2% and 104% | viability, T/C (compound 0.316 µM) 87.9% and 110% and 96.5% | viability, T/C (compound 1 µM) 97.9% and 98.4% and 97.6% | viability, T/C (compound 3.16 µM) 87.5% and 110% and 95.1% | viability, T/C (compound 10 µM) 65.4% and 71% and 64.8%
> 10 µM: IC50 (curve of compound)

COc1ccc([C@@H](O)c2cc(-c3ncnc4cc(N5CCOCC5)ccc34)c(F)cc2Cl)nn1 + CC(CO)NC(=O)c1cc(-c2ccc(Cl)cc2)nn(-c2cnn(C)c2)c1=O
4.79 µM: IC50 [2]
inactive: viability, T/C [6] 88.9% | viability, T/C [7] 89.9% | viability, T/C [8] 93.5% | viability, T/C [9] 76% | viability, T/C [10] 53.5% | viability, T/C [11] 31.7% | viability, T/C [12] 94.2% | viability, T/C [13] 95.8% | viability, T/C [14] 81% | viability, T/C [15] 74.5% | viability, T/C [16] 64.5% | viability, T/C [17] 30.5% | viability, T/C [18] 97.4% | viability, T/C [19] 95.1% | viability, T/C [20] 88.1% | viability, T/C [21] 83.8% | viability, T/C [22] 61.6% | viability, T/C [23] 34.4% | viability, T/C [24] 93.1% | viability, T/C [25] 86.4% | viability, T/C [26] 88.1% | viability, T/C [27] 68.3% | viability, T/C [28] 51.2% | viability, T/C [29] 32.1% | viability, T/C [30] 78.5% | viability, T/C [31] 88.3% | viability, T/C [32] 77.1% | viability, T/C [33] 69.5% | viability, T/C [34] 48.5% | viability, T/C [35] 33.4%
5.26 µM: IC50 [3]
2.91 µM: IC50 [5]
3.18 µM: IC50 [4]
3.65 µM: IC50 [1]

CCN(c1cc(-c2ccc(CN3CCOCC3)cc2)cc(C(=O)NCc2c(C)cc(C)[nH]c2=O)c1C)C1CCOCC1 + Cc1cncc(-c2nc(NCCc3c[nH]c4ccccc34)c3ncn(C(C)C)c3n2)c1
> 3 µM: IC50 [1] | IC50 [2] | IC50 [3]
inactive: viability, T/C (second compound 0.1 µM, first compound 0.00949 µM) 106% | viability, T/C (second compound 0.1 µM, first compound 0.03 µM) 110% | viability, T/C (second compound 0.1 µM, first compound 0.0949 µM) 106% | viability, T/C (second compound 0.1 µM, first compound 0.3 µM) 102% | viability, T/C (second compound 0.1 µM, first compound 0.949 µM) 121% | viability, T/C (second compound 0.1 µM, first compound 3 µM) 123% | viability, T/C (second compound 0.316 µM, first compound 0.00949 µM) 118% | viability, T/C (second compound 0.316 µM, first compound 0.03 µM) 104% | viability, T/C (second compound 0.316 µM, first compound 0.0949 µM) 120% | viability, T/C (second compound 0.316 µM, first compound 0.3 µM) 104% | viability, T/C (second compound 0.316 µM, first compound 0.949 µM) 106% | viability, T/C (second compound 0.316 µM, first compound 3 µM) 125% | viability, T/C (second compound 1 µM, first compound 0.00949 µM) 119% | viability, T/C (second compound 1 µM, first compound 0.03 µM) 110% | viability, T/C (second compound 1 µM, first compound 0.0949 µM) 112% | viability, T/C (second compound 1 µM, first compound 0.3 µM) 111% | viability, T/C (second compound 1 µM, first compound 0.949 µM) 109% | viability, T/C (second compound 1 µM, first compound 3 µM) 120% | viability, T/C (second compound 3.16 µM, first compound 0.00949 µM) 30.5% | viability, T/C (second compound 3.16 µM, first compound 0.03 µM) 26.3% | viability, T/C (second compound 3.16 µM, first compound 0.0949 µM) 29.8% | viability, T/C (second compound 3.16 µM, first compound 0.3 µM) 30.8% | viability, T/C (second compound 3.16 µM, first compound 0.949 µM) 27.9% | viability, T/C (second compound 3.16 µM, first compound 3 µM) 35.5%
active: viability, T/C (second compound 10 µM, first compound 0.00949 µM) 1.09% | viability, T/C (second compound 10 µM, first compound 0.03 µM) 1.47% | viability, T/C (second compound 10 µM, first compound 0.0949 µM) 1.79% | viability, T/C (second compound 10 µM, first compound 0.3 µM) 1.93% | viability, T/C (second compound 10 µM, first compound 0.949 µM) 0.83% | viability, T/C (second compound 10 µM, first compound 3 µM) 1.74%
< 0.00949 µM: IC50 [4] | IC50 [5]
